Assay results published in paper PMC4186856, “Structural Basis for Resistance to Diverse Classes of NAMPT Inhibitors” (PLoS ONE, 2014).

Legend:
[1] = test system: 293T cells expressing NAMPT S165Y; assay: Response of 293T cells expressing NAMPT S165Y; type: cell-based; conditions: NAMPT S165Y expressed in 293T cells
[2] = test system: 293T cells expressing NAMPT S165F; assay: Response of 293T cells expressing NAMPT S165F; type: cell-based; conditions: NAMPT S165F expressed in 293T cells
[3] = molecular target: T1, WT NAMPT (Homo sapiens, UniProt P43490); assay: NAMPT enzymatic inhibition, wild-type protein (RapidFire/MS detection of NMN); conditions: purified wild-type NAMPT 30 nM; 1 µM NAM, 100 µM PRPP, 2.5 mM ATP; read-out: Biochemical IC50, WT
T1 construct: An expression construct for full length human (XP_540386) NAMPT was constructed using pET21B; His6 (C); made in house; host or cells: E. coli Rosetta (DE3)

[4] = molecular target: T2, NAMPT G217R (Homo sapiens, UniProt P43490, G217R); assay: NAMPT enzymatic inhibition, G217R mutant protein; conditions: purified G217R NAMPT 30 nM; 1 µM NAM, 100 µM PRPP, 2.5 mM ATP; read-out: Biochemical IC50, G217R
T2 construct: An expression construct for full length human (XP_540386) NAMPT was constructed using pET21B; His6 (C); made in house; host or cells: E. coli Rosetta (DE3)

[5] = molecular target: T3, NAMPT S165F (Homo sapiens, UniProt P43490, S165F); assay: NAMPT enzymatic inhibition, S165F mutant protein; conditions: purified S165F NAMPT 30 nM; 1 µM NAM, 100 µM PRPP, 2.5 mM ATP; read-out: Biochemical IC50, S165F
T3 construct: An expression construct for full length human (XP_540386) NAMPT was constructed using pET21B; His6 (C); made in house; host or cells: E. coli Rosetta (DE3)

[6] = molecular target: T4, NAMPT G217A (Homo sapiens, UniProt P43490, G217A); assay: NAMPT enzymatic inhibition, G217A mutant protein; conditions: purified G217A NAMPT 30 nM; 1 µM NAM, 100 µM PRPP, 2.5 mM ATP; read-out: Biochemical IC50, G217A
T4 construct: An expression construct for full length human (XP_540386) NAMPT was constructed using pET21B; His6 (C); made in house; host or cells: E. coli Rosetta (DE3)

[7] = molecular target: T5, NAMPT G217V (Homo sapiens, UniProt P43490, G217V); assay: NAMPT enzymatic inhibition, G217V mutant protein; conditions: purified G217V NAMPT 30 nM; 1 µM NAM, 100 µM PRPP, 2.5 mM ATP; read-out: Biochemical IC50, G217V
T5 construct: An expression construct for full length human (XP_540386) NAMPT was constructed using pET21B; His6 (C); made in house; host or cells: E. coli Rosetta (DE3)

[8] = molecular target: T6, NAMPT H191R (Homo sapiens, UniProt P43490, H191R); assay: NAMPT enzymatic inhibition, H191R mutant protein; conditions: purified H191R NAMPT 30 nM; 1 µM NAM, 100 µM PRPP, 2.5 mM ATP; read-out: Biochemical IC50, H191R
T6 construct: An expression construct for full length human (XP_540386) NAMPT was constructed using pET21B; His6 (C); made in house; host or cells: E. coli Rosetta (DE3)

[9] = molecular target: T7, NAMPT S165Y (Homo sapiens, UniProt P43490, S165Y); assay: NAMPT enzymatic inhibition, S165Y mutant protein; conditions: purified S165Y NAMPT 50 nM; 1 µM NAM, 100 µM PRPP, 2.5 mM ATP; read-out: Biochemical IC50, S165Y
T7 construct: An expression construct for full length human (XP_540386) NAMPT was constructed using pET21B; His6 (C); made in house; host or cells: E. coli Rosetta (DE3)

[10] = test system: NCI-H460 tumor xenografts; assay: NCI-H460 parental xenograft efficacy; type: in vivo, mice; conditions: 100 mg/kg, oral, QD for 7 days, p = 0.007 vs. vehicle
[11] = test system: RD cell line; assay: Cellular IC50 in parental RD cell line; type: cell-based; conditions: Homo sapiens, read-out: Parental GNE-618 IC50, NAPRT1 negative
[12] = test system: NCI-H460 cell line; assay: Cellular IC50 in parental NCI-H460 cell line; type: cell-based; conditions: Homo sapiens, read-out: Parental GNE-618 IC50, NAPRT1 negative
[13] = test system: GNE-618 resistant cell lines; assay: Total cellular NAD in GNE-618 resistant cell lines; type: cell-based; conditions: after GNE-618 at 100-fold the parental line IC50; all resistant lines except those harboring only D93del or S165Y
[14] = Tolerability in xenograft-bearing mice; type: in vivo; conditions: doses tested in NCI-H460 parental and S165Y mutant models, oral QD 7 days
[15] = test system: NCI-H460 S165Y tumor xenografts; assay: NCI-H460 S165Y mutant xenograft efficacy; conditions: oral QD, also at higher doses
[16] = test system: NCI-H520 cell line; assay: Cellular IC50 in parental NCI-H520 cell line; type: cell-based; conditions: Homo sapiens, read-out: Parental GNE-618 IC50, NAPRT1 positive
[17] = test system: RD cell line harboring only the D93 deletion; assay: Cellular IC50 shift, RD resistant line (earlier passage) with D93 deletion only; type: cell-based; conditions: cell line carrying D93del
[18] = test system: GNE-618 resistant cell lines harboring mutations other than D93del only or S165Y; assay: Cellular IC50 shift, resistant cell lines harboring the other mutations; type: cell-based; conditions: cell lines harboring the other mutations (not D93del only or S165Y)
[19] = test system: cell lines carrying S165Y (NCI-H460); assay: Cellular IC50 shift, resistant cell line carrying S165Y; type: cell-based
[20] = test system: Mia-Paca2 cell line; assay: Cellular IC50 in parental Mia-Paca2 cell line; type: cell-based; conditions: Homo sapiens, MIA PaCa-2, read-out: Parental GNE-618 IC50, NAPRT1 negative
[21] = test system: RD cell line with the S165F mutation; conditions: RD parent and S165F resistant line, ± 10 µM nicotinic acid

T3 sequence (P43490 whole entry S165F): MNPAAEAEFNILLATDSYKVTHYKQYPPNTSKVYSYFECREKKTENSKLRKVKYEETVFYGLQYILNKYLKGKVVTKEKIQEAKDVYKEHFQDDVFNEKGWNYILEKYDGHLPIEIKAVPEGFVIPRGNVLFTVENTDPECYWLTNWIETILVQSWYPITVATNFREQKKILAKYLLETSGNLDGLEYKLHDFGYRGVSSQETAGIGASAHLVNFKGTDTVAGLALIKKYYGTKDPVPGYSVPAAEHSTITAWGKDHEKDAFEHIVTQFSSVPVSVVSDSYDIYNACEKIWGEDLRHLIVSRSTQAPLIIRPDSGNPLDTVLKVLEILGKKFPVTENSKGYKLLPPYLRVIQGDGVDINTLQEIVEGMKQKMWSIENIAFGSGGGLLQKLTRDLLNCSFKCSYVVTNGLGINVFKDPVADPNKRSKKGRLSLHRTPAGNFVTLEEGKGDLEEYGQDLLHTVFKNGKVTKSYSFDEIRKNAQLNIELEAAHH
T6 sequence (P43490 whole entry H191R): as the sequence (P43490 whole entry S165F) above, with F165S, H191R counted along it
T1 sequence (P43490 whole entry): as the sequence (P43490 whole entry S165F) above, with F165S counted along it
T7 sequence (P43490 whole entry S165Y): as the sequence (P43490 whole entry S165F) above, with F165Y counted along it
T2 sequence (P43490 whole entry G217R): as the sequence (P43490 whole entry S165F) above, with F165S, G217R counted along it
T5 sequence (P43490 whole entry G217V): as the sequence (P43490 whole entry S165F) above, with F165S, G217V counted along it
T4 sequence (P43490 whole entry G217A): as the sequence (P43490 whole entry S165F) above, with F165S, G217A counted along it

Row | Compound | IC50 [3] [nM] | IC50 [4] [µM] | IC50 [5] [nM] | IC50 [6] [nM] | IC50 [7] [µM] | IC50 [8] [µM] | IC50 [9] [nM] | Sensitivity compared to wild-type NAMPT expression [1] | Sensitivity compared to wild-type NAMPT expression [2] | further results
1 | O=C(/C=C/c1cccnc1)NCCCCC1CCN(C(=O)c2ccccc2)CC1 [compound 11] |  |  |  |  |  |  |  | more modest | more modest | 
2 | O=C(NCc1ccc(S(=O)(=O)c2cccc(C(F)(F)F)c2)cc1)c1cc2cnccc2s1 [compound 2] | 5 | > 5 | 15 | 191 | > 5 | 2.17 | 21 |  |  | 
3 | N#CN=C(NCCCCCCOc1ccc(Cl)cc1)Nc1ccncc1 [compound 9] |  |  |  |  |  |  |  | more modest | more modest | 
4 | O=C(NCc1ccc(S(=O)(=O)c2cccc(C(F)(F)F)c2)cc1)c1cnc2[nH]ncc2c1 [compound 1] |  |  |  |  |  |  |  | diminished sensitivity | diminished sensitivity | Tumor growth inhibition [10]: 54%; IC50 [11]: 2 ± 0.2 nM; IC50 [12]: 197 ± 6 nM; Reduction of cellular NAD [13]: less than 90%; Tolerability (weight loss, morbidity, mortality) [14]: well tolerated; Response of tumor xenografts to treatment [15]: completely resistant; IC50 [16]: 9 ± 0.4 nM; Shift in IC50 vs parental [17]: less than 100 fold; Increase in IC50 vs parental [18]: ≥ 100 fold; Shift in IC50 vs parental [19]: less than 100 fold; IC50 [20]: 34 ± 2 nM; IC50 in the presence or absence of 10 µM NA [21]: not significantly different
5 | O=C(NCc1ccc(S(=O)(=O)c2ccccc2)cc1)c1cnc2[nH]ncc2c1 [compound 4] | 80 | > 5 | 1930 | > 5000 | 4.16 | > 5 | 2530 |  |  | 

The next lines start with results.

Row | IC50 [3] [nM] | IC50 [4] [µM] | IC50 [5] [nM] | IC50 [6] [nM] | IC50 [7] [µM] | IC50 [8] [µM] | IC50 [9] [nM] | Compound | Sensitivity compared to wild-type NAMPT expression [1] | Sensitivity compared to wild-type NAMPT expression [2] | further results
6 | 26 | > 5 | 175 | > 5000 | > 5 | > 5 | 148 | O=C(NCc1ccc(S(=O)(=O)c2ccc(N3CCOCC3)nc2)cc1)c1cnc2[nH]ncc2c1 [compound 6] |  |  | 
7 | 7 | > 5 | 42 | 2050 | 3.38 | > 5 | 115 | CCN(C)c1ncc(S(=O)(=O)c2ccc(CNC(=O)c3cnc4[nH]ncc4c3)cc2)s1 [compound 7] |  |  | 
